Assay results taken from ChEMBL document CHEMBL1201862, “PubChem BioAssay data set” (2004).
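Briefly, cells in 96-well plates were exposed to five compound concentrations for 48 h, and endpoints were estimated by linear interpolation. GI50 is the concentration that inhibits growth by half.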 Active and inactive are the calls of the source. Rule as the data show it: active = GI50 up to about 1.1 µM and inactive = higher.

Columns and labels:
Experiment in all cases: NCI tumour cell line growth inhibition, 48 h
DLD-1 = tested on: DLD-1
DMS-114 = tested on: DMS-114
DMS-273 = tested on: DMS-273
HOP-18 = tested on: HOP-18
KM-20L2 = tested on: KM-20L2
LXFL 529 = tested on: LXFL 529
M19-MEL = tested on: M19-MEL
RXF 631 = tested on: RXF 631
XF498 = tested on: XF498

Measured: GI50

CCC1C(=O)OCc2c1cc1n(c2=O)Cc2ccccc2-1 (stereo not drawn)
inactive: DLD-1 > 100 µM | DMS-114 > 100 µM | DMS-273 > 100 µM | HOP-18 > 100 µM | KM-20L2 > 100 µM | LXFL 529 > 100 µM | M19-MEL > 100 µM | RXF 631 > 100 µM | XF498 > 100 µM

COc1ccc(C2=Nc3ccccc3SC(C)C2)cc1 (stereo not drawn)
inactive: DLD-1 81.8 µM | DMS-114 73.3 µM | DMS-273 78.7 µM | KM-20L2 > 100 µM | LXFL 529 85.1 µM | M19-MEL 94.6 µM | RXF 631 68.4 µM

COc1ccc(C2C(Cl)C(=O)N2n2cnc3ccccc3c2=O)cc1 (stereo not drawn)
inactive: DLD-1 > 100 µM | DMS-114 72.8 µM | DMS-273 82.4 µM | HOP-18 24.2 µM | KM-20L2 > 100 µM | LXFL 529 62.1 µM | M19-MEL 76 µM | XF498 > 100 µM

COc1ccc(OC)c(CCc2cc(OC)c(OC)cc2C)c1
inactive: DLD-1 4.7 µM | DMS-114 5.65 µM | KM-20L2 49.8 µM | LXFL 529 30.1 µM | M19-MEL 5.51 µM | XF498 77.6 µM

COC(=O)C(=O)C(/C(=N/N)C(=O)Nc1ccccc1C(N)=O)c1nc2ccc([N+](=O)[O-])cc2nc1O (stereo not drawn)
inactive: DLD-1 > 100 µM | DMS-114 > 100 µM | DMS-273 > 100 µM | KM-20L2 > 100 µM | LXFL 529 > 100 µM | M19-MEL > 100 µM | XF498 > 100 µM

O=[N+]([O-])c1ccc(C2N3CCCCC3[C@H]3CCCCN23)cc1 (stereo partly drawn)
inactive: DLD-1 > 100 µM | DMS-273 > 100 µM | HOP-18 > 100 µM | KM-20L2 > 100 µM | LXFL 529 > 100 µM | M19-MEL > 100 µM | RXF 631 > 100 µM | XF498 > 100 µM

CCOc1ccccc1NC(=O)CC1C(=O)Nc2ccccc2[S+]1[O-] (stereo not drawn)
inactive: DLD-1 > 100 µM | DMS-114 > 100 µM | DMS-273 66.5 µM | KM-20L2 > 100 µM | LXFL 529 56.8 µM | M19-MEL > 100 µM | XF498 44.8 µM

S=c1[nH]c(=S)c2nnn(-c3ccccc3)c2[nH]1
inactive: DLD-1 > 100 µM | DMS-114 5.97 µM | DMS-273 > 100 µM | KM-20L2 > 100 µM | LXFL 529 > 100 µM | M19-MEL > 100 µM | XF498 > 100 µM

O=C1CCc2ccc(O)c(c2)Oc2ccc(cc2)[C@@H]2O[C@@H]2CO1
inactive: DLD-1 55.8 µM | DMS-114 20 µM | HOP-18 25.6 µM | KM-20L2 88.5 µM | LXFL 529 33.2 µM | M19-MEL 38.1 µM | XF498 5.26 µM

CCCCCCCCCCCC[N+]12CC[N+](C)(CC1)CC2
inactive: DLD-1 13.8 µM | DMS-114 19.9 µM | DMS-273 3.69 µM | HOP-18 43.6 µM | KM-20L2 14.9 µM | LXFL 529 25.7 µM | M19-MEL 19.5 µM | XF498 20.7 µM

O=C1OCc2nc3c(c(-c4ccccc4C(F)(F)F)c21)C(=O)OC3
inactive: DLD-1 > 100 µM | DMS-114 > 100 µM | DMS-273 > 100 µM | HOP-18 > 100 µM | KM-20L2 > 100 µM | LXFL 529 > 100 µM | M19-MEL > 100 µM

CC(=O)c1c(C)[n+]([O-])c2cc(C)c(C)cc2[n+]1[O-]
inactive: DLD-1 > 100 µM | DMS-114 > 100 µM | DMS-273 > 100 µM | HOP-18 > 100 µM | KM-20L2 > 100 µM | LXFL 529 > 100 µM | M19-MEL > 100 µM | RXF 631 > 100 µM | XF498 > 100 µM

Nc1nc2c(ncn2CCOC(c2ccccc2)P(=O)(O)O)c(=O)[nH]1 (stereo not drawn)
inactive: DLD-1 > 100 µM | DMS-273 > 100 µM | KM-20L2 > 100 µM | LXFL 529 > 100 µM

O=c1[nH]c2nc3ccccc3c(=O)n2nc1Cc1ccccc1
inactive: DLD-1 > 100 µM | DMS-114 > 100 µM | DMS-273 > 100 µM | KM-20L2 > 100 µM | LXFL 529 > 100 µM

O=C(NCc1ccccc1)C1C(=O)C(=O)N(Cc2ccccc2)C1=O (stereo not drawn)
inactive: DLD-1 > 100 µM | DMS-273 > 100 µM | HOP-18 > 100 µM | KM-20L2 > 100 µM | LXFL 529 > 100 µM | M19-MEL > 100 µM | RXF 631 > 100 µM

NC(=O)NNC(=O)CCn1[nH]c(=O)c(Cl)c(Cl)c1=O
inactive: DLD-1 > 100 µM | DMS-114 > 100 µM | DMS-273 > 100 µM | HOP-18 > 100 µM | KM-20L2 > 100 µM | LXFL 529 > 100 µM | M19-MEL > 100 µM | RXF 631 > 100 µM

C/C(=C\C(C)COCc1ccccc1)[C@H](COCc1ccccc1)OCc1ccccc1 (stereo partly drawn)
inactive: DMS-114 57.5 µM | DMS-273 > 100 µM | KM-20L2 > 100 µM | LXFL 529 82 µM | M19-MEL > 100 µM | RXF 631 > 100 µM | XF498 8.53 µM

Cc1ccc([N+](=O)[O-])c2c(NCCCN(C)C)ccnc12
inactive: KM-20L2 26.4 µM

COc1cc2c3c(c1OC)-c1cc4c(cc1CC3(C#N)N(C(=O)c1ccccc1)CC2)OCO4 (stereo not drawn)
inactive: DLD-1 > 55.7 µM | DMS-114 26.5 µM | DMS-273 21.6 µM | HOP-18 21.2 µM | KM-20L2 > 80.9 µM | LXFL 529 17.7 µM | M19-MEL 46.8 µM | XF498 6.25 µM

O=C(NCc1ccccc1)c1cc2ccc(O)c(O)c2cn1
inactive: DLD-1 18.5 µM | DMS-114 12.8 µM | DMS-273 17.4 µM | HOP-18 20.7 µM | KM-20L2 > 100 µM | LXFL 529 16.9 µM | M19-MEL 1.8 µM | XF498 17.4 µM

N#Cc1cccc(C2SCc3nc4ccccc4n32)c1 (stereo not drawn)
inactive: DLD-1 65.5 µM | DMS-114 49.4 µM | DMS-273 > 100 µM | KM-20L2 > 100 µM | LXFL 529 42.1 µM | RXF 631 > 100 µM | XF498 33.6 µM

O=Cn1c2ccccc2c2ccccc21
inactive: DLD-1 > 100 µM | DMS-114 > 100 µM | DMS-273 > 100 µM | HOP-18 9.64 µM | KM-20L2 > 100 µM | LXFL 529 > 100 µM | M19-MEL > 100 µM | XF498 36.1 µM
